# According to patent EP4800012A1, “COMPOUND ACTING AS PARP7 INHIBITOR” (Dovetree Medicines Unus, Inc., priority 2023, dated 2025):
# Legend:
# PARP7 [1] = target: T1, PARP7 (Homo sapiens, UniProt Q7Z3E1); assay: PARP7 TR-FRET binding inhibition (displacement of probe RBN011147)
# T1 construct: purchased BPS 80527
# T1 sequence (Q7Z3E1 1-657): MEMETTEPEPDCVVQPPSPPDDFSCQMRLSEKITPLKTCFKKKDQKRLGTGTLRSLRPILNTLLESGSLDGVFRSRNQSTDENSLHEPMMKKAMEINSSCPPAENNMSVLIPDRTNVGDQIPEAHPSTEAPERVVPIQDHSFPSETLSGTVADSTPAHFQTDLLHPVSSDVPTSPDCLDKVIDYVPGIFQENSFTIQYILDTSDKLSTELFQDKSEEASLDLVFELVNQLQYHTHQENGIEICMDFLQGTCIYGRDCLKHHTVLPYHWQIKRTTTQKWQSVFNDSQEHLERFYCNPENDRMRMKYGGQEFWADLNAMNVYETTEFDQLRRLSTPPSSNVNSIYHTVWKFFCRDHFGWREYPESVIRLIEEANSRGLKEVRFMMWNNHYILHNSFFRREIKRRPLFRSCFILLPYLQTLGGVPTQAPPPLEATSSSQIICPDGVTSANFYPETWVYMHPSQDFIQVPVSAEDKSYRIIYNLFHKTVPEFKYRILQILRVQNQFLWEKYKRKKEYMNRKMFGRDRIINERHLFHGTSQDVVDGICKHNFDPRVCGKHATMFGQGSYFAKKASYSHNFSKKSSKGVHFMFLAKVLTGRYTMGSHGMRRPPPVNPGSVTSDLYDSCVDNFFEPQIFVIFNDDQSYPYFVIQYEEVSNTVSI
# Experimental: The ability of the compound to substitute the probe RBN011147 (Wigle et al., 2020, Cell Chemical Biology 27, 877-887) was tested by a TR-FRET method, and IC50 was calculated to evaluate the binding ability of the compound to PARP7. […]
# PARP7 [2] = target: T1, PARP7; assay: Inhibition of the compound on PARP7 protein activity (ADP-ribosylation, chemiluminescence); assay type: biochemical
# NCI-H1373 cells = assay: Inhibition on NCI-H1373 cell proliferation (Cell-Titer-Glo); assay type: cell-based; conditions: Homo sapiens, 144 h; NCI-H1373 cells, incubation for 6 days, Cell-Titer-Glo; read-out: NCI-H1373 cell proliferation inhibition IC50
# Experimental: The inhibitory effect of the compound on PARP7 was evaluated by testing the inhibitory effect of the compound on NCI-H1373 cell proliferation.
# NCI-H1373 cells (ATCC, CRL-5866) were cultured in a complete medium, namely, a RPMI-1640 medium (Gibco, 22400089) containing 10% fetal bovine serum (Corning, 35-081-CV).
# Negative control wells and positive control wells were added with 50 nL DMSO (Sigma, D2650), respectively.
# In "Day 0" detection plate, NCI-H1373 cells were seeded at a density of 600 cells/well (50 µL) in a complete medium into the Day 0 test wells of a 384-well detection plate (Grenier, 781091). Then, 25 µL of Cell-Titer-Glo reagent (Promega, G7573) was added to each well, followed by centrifugation at 1000 rpm at room temperature for 1 minute and incubation at room temperature under shaded conditions for 10 min. Chemiluminescence signals were collected using an Envision (Perkin Elmer, EnVision 2105) to obtain the average value of the Day 0 test values.
# In "compound detection plate", NCI-H1373 cells were seeded at a density of 600 cells/well (50 µL) in a complete medium into the negative control wells and the compound detection wells of a 384-well detection plate (Grenier, 781091), and 50 µL of cell culture medium was added to the positive control wells, followed by centrifugation at 1000 rpm at room temperature for 1 minute and placing in a cell incubator at 37°C, 5% CO2 for incubation for 6 days. […] Chemiluminescence signals were collected using an Envision (Perkin Elmer, EnVision 2105). The test values for each compound well, negative control well, and positive control well were obtained.
# The proliferation inhibition ratio formula is as follows: [formula]
# The average value of the negative control = the average value of the Day 6 test values of each negative control well minus the average value of the Day 0 test values
# The average value of the positive control = the average value of the Day 6 test values of each positive control well
# The average value of the compound test = (the Day 6 test value of compound test well 1 + the Day 6 test value of compound test well 2)/2 - the average value of the Day 0 test values
# [3] = TR-FRET, Biotin-labeled probe RBN011147, read-out: PARP7 binding inhibition IC50
# [4] = Histone H1 coated plate, Biotin-Labeled NAD+, 2 h at room temperature, chemiluminescence, read-out: PARP7 activity inhibition IC50
IC50 (PARP7 [1]; [3]),IC50 (PARP7 [2]; [4]),IC50 (NCI-H1373 cells),SMILES,IC50 (PARP7 [1]),IC50 (PARP7 [2]),"IC50 (PARP7 [1]; read-out: PARP7 binding inhibition IC50, TR-FRET, Biotin-labeled probe RBN011147)","IC50 (PARP7 [2]; read-out: PARP7 activity inhibition IC50, Histone H1 coated plate, Biotin-Labeled NAD+, 2 h at room temperature, chemiluminescence)"
10 to 30 nM,< 3 nM,> 3000 nM,CC(CCCNC(=O)c1cnc(-c2ncc(C(F)(F)F)s2)cn1)Nc1cc[nH]c(=O)c1C(F)(F)F (stereo not drawn) [Example 31],,,,
10 to 30 nM,< 3 nM,> 3000 nM,CC(CCCNC(=O)c1cnc(-c2ncc(C(F)F)s2)cn1)Nc1cc[nH]c(=O)c1C(F)(F)F (stereo not drawn) [Example 32],,,,
> 100 nM,30 to 100 nM,> 3000 nM,Cc1cc(NC(C)CCCN(C)C(=O)c2cnc(-c3ncc(C(F)(F)F)cn3)cn2)c(C#N)c(=O)[nH]1 (stereo not drawn) [Example 34],,,,
< 10 nM,< 3 nM,> 3000 nM,CC(CCCNC(=O)c1cnn(-c2ncc(C(F)(F)F)cn2)c1)Nc1cn[nH]c(=O)c1C(F)(F)F (stereo not drawn) [Example 38],,,,
< 10 nM,< 3 nM,300 to 1000 nM,CC(CCCNC(=O)c1cc(-c2ncc(C(F)(F)F)cn2)on1)Nc1cn[nH]c(=O)c1C(F)(F)F (stereo not drawn) [Example 39],,,,
10 to 30 nM,< 3 nM,300 to 1000 nM,CCCc1cnc(-c2ccc(C(=O)NCCCC(C)Nc3cn[nH]c(=O)c3C(F)(F)F)cc2)s1 (stereo not drawn) [Example 41],,,,
30 to 100 nM,< 3 nM,> 3000 nM,CC#Cc1cnc(-c2ccc(C(=O)NCCCC(C)Nc3cn[nH]c(=O)c3C(F)(F)F)cc2)s1 (stereo not drawn) [Example 42],,,,
< 10 nM,< 3 nM,< 300 nM,CC(CCCNC(=O)c1ccc(-c2ncc(CC3CCCC3)s2)cc1)Nc1cn[nH]c(=O)c1C(F)(F)F (stereo not drawn) [Example 43],,,,
< 10 nM,< 3 nM,1000 to 3000 nM,CC(CCCNC(=O)c1ccc(-c2ncc(CC3CC3)s2)cc1)Nc1cn[nH]c(=O)c1C(F)(F)F (stereo not drawn) [Example 44],,,,
10 to 30 nM,3 to 10 nM,> 3000 nM,CC(CCCNC(=O)c1ccc(-n2cccn2)nc1)Nc1cn[nH]c(=O)c1C(F)(F)F (stereo not drawn) [Example 45],,,,
10 to 30 nM,3 to 10 nM,> 3000 nM,CC(CCCNC(=O)c1ccc(-c2ncn(C)n2)cc1)Nc1cn[nH]c(=O)c1C(F)(F)F (stereo not drawn) [Example 47],,,,
30 to 100 nM,10 to 30 nM,> 3000 nM,CC(CCCNC(=O)c1ccc(-n2cncn2)c(F)c1)Nc1cn[nH]c(=O)c1C(F)(F)F (stereo not drawn) [Example 48],,,,
10 to 30 nM,< 3 nM,> 3000 nM,CC(CCCN(C)C(=O)c1cnc(-c2ncc(C(F)(F)F)cn2)cn1)Nc1cn[nH]c(=O)c1C(F)(F)F (stereo not drawn) [Example 50],,,,
30 to 100 nM,< 3 nM,< 300 nM,CC(CCCNC(=O)c1cnc(-c2ncc(C(F)(F)F)cn2)cn1)Oc1cn[nH]c(=O)c1C(F)(F)F (stereo not drawn) [Example 51],,,,
30 to 100 nM,10 to 30 nM,> 3000 nM,CC(CCCNC(=O)c1cnc(-c2ncc(C(F)(F)F)cn2)cn1)Nc1cc[nH]c(=O)c1C#N (stereo not drawn) [Example 52],,,,
30 to 100 nM,10 to 30 nM,> 3000 nM,Cc1c(CCC(=O)Nc2ccc(-c3ncc(C(F)(F)F)cn3)cc2F)c[nH]c(=O)c1C(F)(F)F [Example 53],,,,

SMILES,IC50 (PARP7 [1]; [3]),IC50 (PARP7 [2]; [4]),IC50 (NCI-H1373 cells),IC50 (PARP7 [1]),IC50 (PARP7 [2]),"IC50 (PARP7 [1]; read-out: PARP7 binding inhibition IC50, TR-FRET, Biotin-labeled probe RBN011147)","IC50 (PARP7 [2]; read-out: PARP7 activity inhibition IC50, Histone H1 coated plate, Biotin-Labeled NAD+, 2 h at room temperature, chemiluminescence)"
Cc1cc(NC(C)CCCNC(=O)c2cnc(-c3ncc(C(F)(F)F)cn3)cn2)c(C#N)c(=O)[nH]1 (stereo not drawn) [Example 35],,,> 3000 nM,30 to 100 nM,10 to 30 nM,,
CCOc1cnc(-c2ccc(C(=O)NCCCC(C)Nc3cn[nH]c(=O)c3C(F)(F)F)cc2)s1 (stereo not drawn) [Example 40],10 to 30 nM,< 3 nM,> 3000 nM,,,,
C[C@@H](CCCNC(=O)c1ccc(-c2nccs2)cn1)Nc1cn[nH]c(=O)c1C(F)(F)F [Example 46],,,> 3000 nM,,,10 to 30 nM,10 to 30 nM
